Laboratory results published in patent US11667631B2, “FGFR4 inhibitor, preparation method therefor, and applications thereof” (Jiangsu Hansoh Pharmaceutical Group Co., Ltd., priority 2016, dated 2023).
Read-outs that look alike come from different tables or passages of the source.

Key:
HuH-7 cells = assay: Inhibition of HuH-7 cell proliferation (CellTiter-Glo); assay type: cell-based; conditions: Homo sapiens, read-out: HuH-7 IC50
Method: In this experiment, the inhibitory effect of the compounds on HuH-7 cell proliferation was tested by a CellTiter-Glo method, and the half maximal inhibitory concentration (IC50) of the compounds on the activity of cell proliferation was determined.
1) A 96-well cell culture plate was seeded with 50˜100 μL of HuH-7 cell suspension at a density of 1˜5×10^4 cells/ml. The culture plate was incubated in an incubator for 16˜24 hours (37° C., 5% CO2).
(§1) 2) Different concentrations of the test compound in a gradient dilution were added to the cells in the culture plate. The culture plate was incubated in an incubator for 72 hours (37° C., 5% CO2).
3) 50˜100 μL of CellTiter-Glo reagent was added to each well. Then, the culture plate was shaken or left to stand for 5˜30 minutes at room temperature.
(§2) 4) The chemiluminescence signal values of each plate were determined by a microplate reader.
(§3) 5) The inhibition rates were calculated according to the chemiluminescence signal values.
(§4) 6) The IC50 of the compound was obtained by curve fitting according to the inhibition rates at different concentrations, and the cell activity of the specific example compounds is shown in Table 2.

Hep 3B cells = assay: Inhibition of Hep 3B cell proliferation (CellTiter-Glo); assay type: cell-based; conditions: Homo sapiens, Hep3B
Method: In this experiment, the inhibitory effect of the compounds on Hep 3B cell proliferation was tested by a CellTiter-Glo method, and the half maximal inhibitory concentration (IC50) of the compounds on the activity of cell proliferation was determined.
1) A 96-well cell culture plate was seeded with 50˜100 μL of Hep 3B cell suspension at a density of 1˜5×10^4 cells/ml. The culture plate was incubated in an incubator for 16˜24 hours (37° C., 5% CO2).
as §1
(§5) 3) 50˜100 μL of CellTiter-Glo reagent were added to each well. Then, the culture plate was shaken or left to stand for 5˜30 minutes at room temperature.
as §2, §3

FGFR1 kinase = FGFR1 kinase (Homo sapiens (Human), UniProt P11362); assay: Enzymologic experiment of FGFR1 (TR-FRET); assay type: biochemical; conditions: FGFR1 kinase activity
Chain of FGFR1 kinase (P11362 22-822): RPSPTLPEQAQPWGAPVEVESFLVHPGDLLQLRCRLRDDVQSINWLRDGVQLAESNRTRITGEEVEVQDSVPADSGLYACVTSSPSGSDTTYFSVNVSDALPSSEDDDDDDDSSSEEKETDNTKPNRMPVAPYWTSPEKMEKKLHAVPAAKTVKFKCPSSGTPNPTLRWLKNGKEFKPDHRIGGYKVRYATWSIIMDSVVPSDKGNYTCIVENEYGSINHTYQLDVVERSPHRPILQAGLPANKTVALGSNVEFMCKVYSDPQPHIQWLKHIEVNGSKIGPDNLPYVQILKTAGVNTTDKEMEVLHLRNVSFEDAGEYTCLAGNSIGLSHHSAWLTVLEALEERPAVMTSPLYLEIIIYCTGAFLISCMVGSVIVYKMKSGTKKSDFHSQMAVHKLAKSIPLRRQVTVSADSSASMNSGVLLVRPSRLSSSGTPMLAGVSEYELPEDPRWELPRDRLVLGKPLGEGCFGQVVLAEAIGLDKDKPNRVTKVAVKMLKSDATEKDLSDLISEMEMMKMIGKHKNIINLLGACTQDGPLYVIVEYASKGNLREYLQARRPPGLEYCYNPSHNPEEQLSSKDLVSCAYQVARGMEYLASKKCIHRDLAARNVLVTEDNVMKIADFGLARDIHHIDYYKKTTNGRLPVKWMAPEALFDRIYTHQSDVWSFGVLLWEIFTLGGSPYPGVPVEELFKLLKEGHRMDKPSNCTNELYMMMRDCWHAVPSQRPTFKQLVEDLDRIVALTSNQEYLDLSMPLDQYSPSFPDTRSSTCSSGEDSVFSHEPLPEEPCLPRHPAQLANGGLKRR
Method: In this experiment, the inhibitory effect of the compounds on FGFR1 kinase activity was tested by a fluorescence resonance energy transfer (TR-FRET) method, and the half maximal inhibitory concentration (IC50) of the compounds on the FGFR1 kinase activity was determined.
1) 1˜5 μL of FGFR1 enzyme solution was added to a 384-well plate, and the final concentration of the enzyme was 0.1˜5 nM.
(§6) 2) 1˜5 μL of diluted solution in gradient of the compound was added.
(§7) 3) 1˜5 μL of a substrate mixture containing substrate polypeptide with a final concentration of 5˜50 nM and ATP with a final concentration of 10˜200 μM was added.
(§8) 4) The mixture was incubated for 0.5˜3 hours at room temperature.
(§9) 5) 10 μL of EDTA and a test solution comprising labeled antibody were added, and the plate was incubated for 1 hour at room temperature.
6) The fluorescence signal values of each plate were determined by a microplate reader at 665 nm.
(§10) 7) The inhibition rates were calculated according to the fluorescence signal values.
8) The IC50 of the compound was obtained by curve fitting according to the inhibition rates at different concentrations, and the enzymatic activity of the specific example compounds is shown in Table 1.

FGFR4 kinase = FGFR4 kinase (Homo sapiens (Human), UniProt P22455); assay: Enzymologic experiment of FGFR4 (TR-FRET); assay type: biochemical; conditions: FGFR4 kinase activity
Chain of FGFR4 kinase (P22455 22-802): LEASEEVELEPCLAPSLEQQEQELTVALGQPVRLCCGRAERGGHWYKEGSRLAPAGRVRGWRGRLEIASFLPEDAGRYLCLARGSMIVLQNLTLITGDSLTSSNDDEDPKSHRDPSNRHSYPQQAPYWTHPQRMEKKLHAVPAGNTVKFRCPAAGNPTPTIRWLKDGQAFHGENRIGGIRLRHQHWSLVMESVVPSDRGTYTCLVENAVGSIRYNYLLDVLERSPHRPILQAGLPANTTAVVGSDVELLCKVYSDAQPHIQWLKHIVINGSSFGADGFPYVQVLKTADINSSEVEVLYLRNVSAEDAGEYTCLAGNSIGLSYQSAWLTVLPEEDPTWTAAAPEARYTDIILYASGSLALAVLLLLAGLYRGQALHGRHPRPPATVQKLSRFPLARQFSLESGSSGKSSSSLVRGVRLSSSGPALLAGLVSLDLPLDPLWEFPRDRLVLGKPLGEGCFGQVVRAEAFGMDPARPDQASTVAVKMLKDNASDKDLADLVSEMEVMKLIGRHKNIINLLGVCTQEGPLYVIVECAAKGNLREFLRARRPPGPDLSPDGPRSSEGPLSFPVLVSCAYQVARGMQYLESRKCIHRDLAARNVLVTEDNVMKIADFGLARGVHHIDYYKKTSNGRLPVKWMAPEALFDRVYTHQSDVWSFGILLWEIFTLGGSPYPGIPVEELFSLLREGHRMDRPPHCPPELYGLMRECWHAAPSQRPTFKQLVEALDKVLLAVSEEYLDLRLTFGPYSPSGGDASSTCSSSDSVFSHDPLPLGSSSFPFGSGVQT
Method: In this experiment, the inhibitory effect of the compounds on FGFR4 kinase activity was tested by a fluorescence resonance energy transfer (TR-FRET) method, and the half maximal inhibitory concentration (IC50) of the compounds on the FGFR4 kinase activity was determined.
as §6, §7, §8, §9, §10

SK-HEP-1 cells = assay: Inhibition of SK-HEP-1 cell proliferation (CellTiter-Glo); assay type: cell-based; conditions: Homo sapiens, read-out: SK-HEP-1 IC50
Method: In this experiment, the inhibitory effect of the compounds on SK-HEP-1 cell proliferation was tested by a CellTiter-Glo method, and the half maximal inhibitory concentration (IC50) of the compounds on the activity of cell proliferation was determined.
1) A 96-well cell culture plate was seeded with 50˜100 μL of SK-HEP-1 cell suspension at a density of 1˜5×10^4 cells/ml. The culture plate was incubated in an incubator for 16˜24 hours (37° C., 5% CO2).
as §1, §5, §2, §3, §4

[1] = Pharmacokinetic (PK) analysis in rats; assay type: in vivo, Sprague Dawley (SD) rats; conditions: SD rats, single intragastric administration, 5 mg/kg; for Peak Time tmax: (sampling in hours); for AUC(0-t) / AUC(0-inf) / half-life / MRT / Cmax: Sprague-Dawley, rat, plasma, po; for AUC(0-t): read-out: Area Under Curve AUC0-t; for AUC(0-inf): read-out: Area Under Curve AUC0-∞; for half-life: read-out: Half-Time t1/2 (converted); for MRT: read-out: Mean Residence Time MRT; for Cmax: read-out: Plasma Concentration Cmax
Method: 1) 0.2 ml of intravenous blood was collected and placed in a K2EDTA test tube. The blood was centrifuged at room temperature at the speed of 1000˜3000×g for 5˜20 minutes to isolate the plasma, which was then stored at −80° C.
2) 160 μL of acetonitrile was added to 40 μL of plasma sample for precipitation, and then the mixture was centrifuged at the speed of 500˜2000×g for 5˜20 minutes.
3) 100 μL of treated solution was taken, and the concentration of the test compound was analyzed by LC/MS/MS. The LC/MS/MS analytical instrument was AB Sciex API 4000. • Liquid chromatography analysis: • Condition of Liquid chromatography: Shimadzu LC-20AD pump • Chromatographic column: phenomenex Gemiu 5 um C18 50×4.6 mm • Mobile phase: Solution A is 0.1% formic acid aqueous solution, and Solution B is acetonitrile • Flow rate: 0.8 mL/min • Elution time: 0-3.5 minutes, the eluent was used as follows: […]

[2] = HuH-7 cell proliferation, 72 hours, CellTiter-Glo
[3] = Hep 3B cell proliferation, 72 hours, CellTiter-Glo, read-out: Hep 3B IC50
[4] = SK-HEP1, SK-HEP-1 cell proliferation, 72 hours, CellTiter-Glo
[5] = 72 h, read-out: Hep 3B IC50, Hep 3B cell proliferation, 72 hours, CellTiter-Glo

IC50 (HuH-7 cells; [2]) [nM]	IC50 (FGFR1 kinase) [nM]	IC50 (FGFR4 kinase) [nM]	IC50 (SK-HEP-1 cells; [4]) [nM]	SMILES	IC50 (Hep 3B cells; [3]) [nM]	IC50 (HuH-7 cells; Huh-7, 72 h) [nM]	Peak Time tmax [1] [h]	AUC(0-t) [1] [ng·h/mL]	AUC(0-inf) [1] [ng·h/mL]	half-life [1] [h]	MRT [1] [h]	Cmax [1] [ng/mL]	IC50 (Hep 3B cells; [5]) [nM]	IC50 (SK-HEP-1 cells; SK-HEP1, 72 h) [nM]
35.4	> 10000	6.5	> 10000	CC1COC(=O)N1Cc1cc2c(nc1C=O)N(C(=O)Nc1cc(S[C@@H]3CCOC3)c(C#N)cn1)CCC2 (stereo partly drawn) [Example 44, N-(5-Cyano-4-(((R)-tetrahydrofuran-3-yl)thio)pyridin-2-yl)-7-formyl-6-(((S)-4-methyl-2-carbonyloxazolidin-3-yl)methyl)-3,4-dihydro-1,8-naphthyridin-1(2H)-carboxamide]	11.5	–	–	–	–	–	–	–	–	–
13.4	> 10000	1.71	> 10000	COCCNc1cc(NC(=O)N2CCCc3cc(CN4C(=O)COCC45CC5)c(C=O)nc32)ncc1C#N [Example 21, N-(5-Cyano-4-((2-methoxyethyl)amino)pyridin-2-yl)-7-formyl-6-((5-carbonyl-7-oxa-4-azaspiro[2.5]octane-4-yl)methyl)-3,4-dihydro-1,8-naphthyridin-1(2H)-carboxamide]	8.6	–	–	–	–	–	–	–	–	–
19.4	> 10000	1.34	> 10000	CO[C@H]1CCOCC1Nc1cc(NC(=O)N2CCCc3cc(CN4CCOCC4=O)c(C=O)nc32)ncc1C#N (stereo partly drawn) [Example 70, N-(5-Cyano-4-(((3,4)-trans-4-methoxytetrahydro-2H-pyran-3-yl)amino)pyridin-2-yl)-7-formyl-6-((3-carbonylmorpholino)methyl)-3,4-dihydro-1,8-naphthyridin-1(2H) -carboxamide]	6.2	–	–	–	–	–	–	–	–	–
15.6	> 10000	8.48	> 10000	COC[C@@H](C)Oc1cc(NC(=O)N2CCCc3cc(CN4CCOC4=S)c(C=O)nc32)ncc1C#N [Example 48, (R)-N-(5-Cyano-4-((1-methoxypropan-2-yl)oxy)pyridin-2-yl)-7-formyl-6-((2-thiooxazolidin-3-yl)methyl)-3,4-dihydro-1,8-naphthyridin-1(2H)-carboxamide]	13.1	–	–	–	–	–	–	–	–	–
32.2	> 10000	4.66	> 10000	C[C@H]1COC(=O)N1Cc1cc2c(nc1C=O)N(C(=O)Nc1cc(S[C@H]3CCOC3)c(C#N)cn1)CCC2 [Example 45, N-(5-Cyano-4-(((S)-tetrahydrofuran-3-yl)thio)pyridin-2-yl)-7-formyl-6-(((S)-4-methyl-2-carbonyloxazolidin-3-yl)methyl)-3,4-dihydro-1,8-naphthyridin-1(2H)-carboxamide]	14.2	–	–	–	–	–	–	–	–	–
4.1	> 10000	1.12	> 10000	CO[C@@H]1COCC1Nc1cc(NC(=O)N2CCCc3cc(CN4CCCCOC4=O)c(C=O)nc32)ncc1C#N (stereo partly drawn) [Example 37, N-(5-Cyano-4-(((trans)-4-methoxytetrahydrofuran-3-yl)amino)pyridin-2-yl)-7-formyl-6-((2-carbonyl-1,3-oxazepin-3-yl)methyl)-3,4-dihydro-1,8-naphthyridin-1(2H) -carboxamide]	2.8	–	–	–	–	–	–	–	–	–
–	> 10000	2.9	–	N#Cc1cnc(NC(=O)N2CCCc3cc(CN4CCOCC4=O)c(C=O)nc32)cc1NCCN1CCCC1 [Example 2, N-(5-Cyano-4-((2-(pyrrolidin-1-yl)ethyl)amino)pyridin-2-yl)-7-formyl-6-((3-carbonylmorpholino)methyl)-3,4-dihydro-1,8-naphthyridin-1(2H)-carboxamide]	–	–	–	–	–	–	–	–	–	–
10.2	> 10000	0.6	> 10000	COCCNc1cc(NC(=O)N2CCCc3cc(CN4CCCN(C)CC4=O)c(C=O)nc32)ncc1C#N [Example 7, N-(5-Cyano-4-((2-methoxyethyl)amino)pyridin-2-yl)-7-formyl-6-((4-methyl-2-carbonyl-1,4-diazoheptyl-1-yl)methyl)-3,4-dihydro-1,8-naphthyridin-1(2H)-carboxamide]	1.4	–	–	–	–	–	–	–	–	–
13.4	> 10000	2.5	> 10000	COC[C@H](C)Nc1cc(NC(=O)N2CCCc3cc(CN4CCCCOC4=O)c(C=O)nc32)ncc1C#N [Example 30]	4.6	–	–	–	–	–	–	–	–	–
20.4	> 10000	4.25	> 10000	N#Cc1cnc(NC(=O)N2CCCc3cc(CN4CCCCOC4=O)c(C=O)nc32)cc1S[C@H]1CCOC1 [Example 36]	8	–	–	–	–	–	–	–	–	–
8.1	> 10000	4.41	> 10000	COCCNc1cc(NC(=O)N2CCCc3cc(CN4C(=O)OCC45CC5)c(C=O)nc32)ncc1C#N [Example 43, N-(5-Cyano-4-((2-methoxyethyl)amino)pyridin-2-yl)-7-formyl-6-((5-carbonyl-6-oxa-4-azaspiro[2.4]heptan-4-yl)methyl)-3,4-dihydro-1,8-naphthyridin-1(2H)-carboxamide]	8.1	–	–	–	–	–	–	–	–	–

SMILES	IC50 (HuH-7 cells; [2]) [nM]	IC50 (FGFR1 kinase) [nM]	IC50 (FGFR4 kinase) [nM]	IC50 (SK-HEP-1 cells; [4]) [nM]	IC50 (Hep 3B cells; [3]) [nM]	IC50 (HuH-7 cells; Huh-7, 72 h) [nM]	Peak Time tmax [1] [h]	AUC(0-t) [1] [ng·h/mL]	AUC(0-inf) [1] [ng·h/mL]	half-life [1] [h]	MRT [1] [h]	Cmax [1] [ng/mL]	IC50 (Hep 3B cells; [5]) [nM]	IC50 (SK-HEP-1 cells; SK-HEP1, 72 h) [nM]
CO[C@H]1CCC1Oc1cc(NC(=O)N2CCCc3cc(CN4CCOCC4=O)c(C=O)nc32)ncc1C#N (stereo partly drawn) [Example 62, N-(5-Cyano-4-cis-((1,2)-2-methoxycyclobutoxy)pyridin-2-yl)-7-formyl-6-((3-carbonylmorpholino)methyl)-3,4-dihydro-1,8-naphthyridin-1(2H)-carboxamide]	–	> 10000	–	–	–	4.2	2	4020	4060	0.85	2.98	2810	3.4	> 10000
COCCSc1cc(NC(=O)N2CCCc3cc(CN4CCOCC4=O)c(C=O)nc32)ncc1C#N [Example 13, N-(5-Cyano-4-((2-methoxyethyl)thio)pyridin-2-yl)-7-formyl-6-((3-carbonylmorpholino)methyl)-3,4-dihydro-1,8-naphthyridin-1(2H)-carboxamide]	–	> 10000	–	–	–	32.3	2	3510	3570	1.16	2.8	1200	20.8	> 10000
